Like-named read-outs stand apart in the source and are kept apart here.
Legend:
[1] = system: Human umbilical vein endothelial cells (HUVECs); type: cell-based
Experimental: (§1) Cell Culture. Human umbilical vein endothelial cells (HUVECs) were obtained from Caesarian section derived cords. HUVECs were cultured by standard methodology in 25 cm^2 T-flasks (Corning Inc., Corning, N.Y.) coated with 0.5% porcine skin gelatin (Sigma Chemical Co., St. Louis, Mo.). Medium 199 (Life Technologies, Gaithersburg, Md.), supplemented with 20% defined fetal bovine serum (FBS) (Hyclone, Logan, Utah), 16 U/ml heparin (Sigma), 50 μg/ml bovine hypothalamus derived endothelial mitogen (Biomedical Technologies, Stoughton, Mass.), 100 U/ml penicillin and 100 μg/ml streptomycin was used for the growth of HUVECs. Endothelial cells were characterized by homogenous and typical cobblestone morphology, von Willebrand factor antigen positively, and the presence of Weibel-Palade bodies, as are known in the art.
(§2) Protection/Inhibition Assay. The number of metabolically active cells after exposure of endothelial cell cultures to test agents was assessed using a calorimetric method. This assay utilizes solutions of a tetrazolium compound [3-(4,5-dimethylthiazol-2-yl)-5-(3-carboxymethoxyphenyl)-2-(4 Sulfophenyl)-2H-tetrazolium] (MTS) and an electron coupling reagent, phenazine methosulfate (PMS; available from Promega Corp., Madison, Wis.). See Denizot and Lang, J. Immunol. Methods 89:271 (1986); Promega Corporation Technical Bulletins 112, 152 and 169). […] The amount of formazan is measured at 490 nm absorbance and is directly proportional to the numbers of living cells in culture.
(§3) Endothelial cells grown in the complete (supplemented) M199 medium were harvested in the log phase. […] The number and viability of the cells was determined using a hemocytometer and the trypan blue staining, respectively. […] The absorbance of each well at 490 nm was recorded using an ELISA plate reader. The LD50 and the effect of the various treatments on cell viability and chemosensitivity were determined by plotting the corrected absorbance at 490 nm versus the concentration of the additive (EPO, chemotherapeutic agent, or combinations thereof). […]

[2] = system: human umbilical vein endothelial cells; conditions: cited from earlier work
[3] = doses of up to 1,500 Units/kg for three to four weeks; cited from earlier work
[4] = system: bovine capillary endothelial cells; conditions: cited from earlier work
[5] = system: Human umbilical vein endothelial cells (HUVECs); type: cell-based; remark: listed apart in the source
Experimental: as §1, with “Endothelial cells were characterized by homogenous and typical cobblestone morphology, von Willebrand factor antigen positively, and the presence of Weibel-Palade bodies, as are known in the art.” left out
Protection/Inhibition Assay. The number of metabolically active cells after exposure of endothelial cell cultures to test agents was assessed using a calorimetric method. […] The amount of formazan is measured at 490 nm absorbance and is directly proportional to the numbers of living cells in culture.
Endothelial cells grown in the complete (supplemented) M199 medium were harvested in the log phase. […] The number and viability of the cells was determined using a hemocytometer and the trypan blue staining, respectively. […] The absorbance of each well at 490 nm was recorded using an ELISA plate reader. […]
Endothelial cell cultures were prepared as described in Example 1. […] Endothelial cell viability was assessed using the MTS/PMS calorimetric assay described in Example 1.

[6] = system: Human umbilical vein endothelial cells (HUVECs); assay: Protection/inhibition assay, EPO added two hours after cisplatin (MTS/PMS); type: cell-based
Experimental: as §1
as §2, with “Wis.).” for “Wis.). See Denizot and Lang, J. Immunol. Methods 89:271 (1986); Promega Corporation Technical Bulletins 112, 152 and 169).”
as §3
Endothelial cell cultures were prepared as described in Example 1. […] Endothelial cell viability was assessed using the MTS/PMS colorimetric assay described in Example 1.

## erythropoietin [EPO]
[1]; 0.15 to 1.25 U/ml EPO simultaneously with 1 μg/ml cisplatin
  effect on endothelial cell cultures vs cisplatin alone: protected from the damaging effects of cisplatin
[1]; 0.3 U/ml EPO simultaneously with 1 μg/ml cisplatin
  number of viable cells greater than in control cultures treated with cisplatin only: approximately 30%
[1]; 5 to 20 U/ml EPO simultaneously with 1 μg/ml cisplatin
  endothelial cell growth vs cisplatin alone: inhibited
[2]
  mitogenic and chemoattractant (migratory) effect: exerts a mitogenic and chemoattractant (migratory) effect
[3]
  toxic effects due to EPO itself: without toxic effects
[4]
  mitogenic and chemoattractant (migratory) effect: exerts a mitogenic and chemoattractant (migratory) effect
[5]; 2.5 U/ml EPO two hours prior to cisplatin
  reduction of cell growth compared to controls: 48%
[5]; 5 U/ml EPO two hours prior to cisplatin
  reduction of cell growth compared to controls: 58%
[6]; 0.15 to 5 U/ml EPO two hours following 1 μg/ml cisplatin
  effect on endothelial cell cultures vs cisplatin alone: protected from the damaging effects of cisplatin
[6]; 1.25 U/ml EPO two hours after 1 μg/ml cisplatin
  number of viable cells greater than that of controls: 34%
[6]; 10 to 20 U/ml EPO two hours after 1 μg/ml cisplatin
  cell viability vs controls (cisplatin only): reduced over that seen in controls
